# Experimental data reported in patent publication US20230000813A1, “COMPOUND FOR THE TREATMENT OF BOVINE OR SWINE RESPIRATORY DISEASE” (Intervet Inc., priority 2016, published 2023).
# Marks after values point to notes of the source that are not given here.
# Experiments:
# [1] = tested on: Mannheimia haemolytica MH 13065 (XB0446-6003.9, BRD field isolate); assay: MIC, broth-microdilution (CLSI VET01-A4); type: cell-based
# Method in brief: (§1)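 Broth microdilution per CLSI VET01-A4 using doubling dilution series of compound. MIC taken as the lowest concentration with no turbidity visible to the unaided eye, interpreted per CLSI VET01-S3.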
# [2] = tested on: Mannheimia haemolytica MH 13093 (XB0472-6014.1, BRD field isolate); assay: MIC, broth-microdilution (CLSI VET01-A4); type: cell-based
# Method in brief: as §1
# [3] = tested on: Mannheimia haemolytica MH 12180 (KLI-02944, BRD field isolate); assay: MIC, broth-microdilution (CLSI VET01-A4); type: cell-based; settings: strain MH 12180
# Method in brief: (§2)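 Broth microdilution per CLSI VET01-A4 with doubling dilution series of compound. MIC taken as lowest concentration giving no visible turbidity by unaided eye, interpreted per CLSI VET01-S3.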
# [4] = tested on: Staphylococcus aureus SA 5816 (2139, mastitis field isolate); assay: MIC, broth-microdilution (CLSI VET01-A4); type: cell-based; settings: strain SA 5816
# Method in brief: as §2
# [5] = tested on: 20 isolates of Actinobacillus (A.) pleuropneumoniae; assay: MIC50/MIC90, broth-microdilution, European respiratory tract isolates; type: cell-based
# Description: (§3) The in vitro activity of compounds against 20 isolates of Actinobacillus (A.) pleuropneumoniae, 20 of Bordetella (B.) bronchiseptica, 20 of Histophilus (H.) somni, 40 of Mannheimia (M.) haemolytica and 40 of Pasteurella (P.) multocida collected in different European countries were determined. All bacteria were isolated from the respiratory tract of swine and cattle suffering from respiratory disease. All isolates were epidemiologically unrelated as specified by the different suppliers.
# (§4) The minimum inhibitory concentrations (MIC) of compounds according to the invention were determined by the broth-microdilution method according to CLSI document VET01-A4.
# (§5) Microdilution trays containing a doubling dilution series of the test compounds were used for the tests.
# (§6) The MIC results were interpreted according to the CLSI documents VET01-S3. The lowest concentration of compound at which no visible growth (i.e. no turbidity) detected by the unaided eye was recorded as the MIC.
# [6] = tested on: 20 isolates of Bordetella (B.) bronchiseptica; assay: as above; type: cell-based
# Description: as §3, §4, §5, §6
# [7] = tested on: 20 isolates of Histophilus (H.) somni; assay: as above; type: cell-based
# Description: as §3, §4, §5, §6
# [8] = tested on: 40 isolates of Mannheimia (M.) haemolytica; assay: as above; type: cell-based
# Description: as §3, §4, §5, §6
# [9] = tested on: 40 isolates of Pasteurella (P.) multocida; assay: as above; type: cell-based
# Description: as §3, §4, §5, §6
# M. haemolytica = assay: Mannheimia haemolytica cattle lung infection model, efficacy (Example 10); type: in vivo, cattle calves; settings: for Food consumption, cumulated for all animals in the group: 3 calves; for Bacteriological Cure (x of n) / Survival (x of n): calves infected with M. haemolytica, SC, single
# Description: Unless otherwise described the study was conducted as described in Clinical Example 8
# Calves were infected via intratracheal instillation of appr. 300 mL of M. haemolytica PBS suspension containing approximately 4×10^9 CFU M. haemolytica in late log phase on Day 0.
# One hour later three animals each were treated with 10 mg/kg of Compound 231(referred to as C. 231) (80 mg/mL in 10% Poloxamer 188), or 10 mg/kg or 5 mg/kg Compound 329 (referred to as C. 329) (150 mg/mL in 35% Cavitron).
# The following clinical findings were recorded: The general behavior scores of the animals before (DO am) and after infection with M. haemolytica in the different treated and control groups are indicated in FIG. 8-1: 0=normal; 1=slightly depressive, 2=moderately depressive, 3=highly depressive, 4=recumbency.
# The following pathomorphological findings after section on Day 2 were recorded: After measuring the body weight and the lung weight the Lung body mass ratio was calculated as shown in FIG. 8-2. A healthy animal has a lung body mass ration around 1.7 or lower. The area percentage of lung consolidations compared to the total lung tissue and the lung score determined that is a combined score of such percentage of lung consoldiations and the grade. For the “grade” the degree of lung consolidation score was graded from 0 to 3 for each of eight lung lobes: 0 no visible changes, 1 low graded colour changes or induration, 2 medium graded induration, 3 high graded induration, hepatisation, necrosis.
# The geometrical means (CFU/g tissue) of bacteriological re-isolations of Mannheimia haemolytica from lung tissue are illustrated in FIG. 8-4.
compound,measurement,setting,value
CC(C)(N)C(NC(=O)c1ccc(C#Cc2ccc(CNC3CC3)cc2)cc1)C(=O)NO (centres unmarked) [C. 329],MIC,[1],0.8 µM
same,MIC,[2],1.6 µM
same,MIC,[3],0.5 µg/mL
same,MIC,[4],>16 µg/mL
same,MIC50,[5],0.5 µg/mL
same,MIC90,[5],0.5 µg/mL
same,MIC50,[6],2 µg/mL
same,MIC90,[6],4 µg/mL
same,MIC50,[7],0.25 µg/mL
same,MIC90,[7],0.25 µg/mL
same,MIC50,[8],0.5 µg/mL
same,MIC90,[8],1 µg/mL
same,MIC50,[9],0.032 µg/mL
same,MIC90,[9],0.032 µg/mL
same,"Food consumption, cumulated for all animals in the group","M. haemolytica; D 0 am, after infection and treatment, 5 mg/kg",1213 g
same,"Food consumption, cumulated for all animals in the group","M. haemolytica; D 0 am, after infection and treatment, 10 mg/kg",1800** g
same,"Food consumption, cumulated for all animals in the group","M. haemolytica; D 0 pm, 5 mg/kg",4800 g
same,"Food consumption, cumulated for all animals in the group","M. haemolytica; D 0 pm, 10 mg/kg",4800 g
same,"Food consumption, cumulated for all animals in the group","M. haemolytica; D +1 am, 5 mg/kg",4800 g
same,"Food consumption, cumulated for all animals in the group","M. haemolytica; D +1 am, 10 mg/kg",4800 g
same,"Food consumption, cumulated for all animals in the group","M. haemolytica; D +1 pm, 5 mg/kg",4800 g
same,"Food consumption, cumulated for all animals in the group","M. haemolytica; D +1 pm, 10 mg/kg",4800 g
same,"Food consumption, cumulated for all animals in the group","M. haemolytica; D −1 (before infection), 5 mg/kg",4800 g
same,"Food consumption, cumulated for all animals in the group","M. haemolytica; D −1 (before infection), 10 mg/kg",4800 g
same,Bacteriological Cure (x of n),M. haemolytica; 5 mg/kg BW,1/3
same,Survival (x of n),M. haemolytica; 5 mg/kg BW,3/3
same,Bacteriological Cure (x of n),M. haemolytica; 10 mg/kg BW,3/3
same,Survival (x of n),M. haemolytica; 10 mg/kg BW,3/3
same,efficacy against an artificial lung infection with M. haemolytica in the calf,"M. haemolytica; tested dosages 10 mg/kg for C 231 and 10 mg/kg and 5 mg/kg for C 329, conclusion in words",effective
